Publication PMC11855827, “High-Throughput Screening of Five Compound Libraries for Anthelmintic Activity and Toxicity Leads to the Discovery of Two Flavonoid Compounds” (International Journal of Molecular Sciences, 2025)
Several values for one entry are separate records, joined by “and”; a condition that tells them apart may be missing. Equal entries are not always repeated. Where two headings read alike, the source gives them in different places. Where no end group is shown, it is not given here.

Test system: C. elegans
[1] = Table S2, C. elegans SS assay, 110 μM, 0 h, averages of 4 data points
[2] = Table S2, C. elegans SS assay, 110 μM, 24 h, averages of 4 data points

Molecule	Percentage of motility inhibition 0 h [1] [%]	Percentage of motility inhibition 24 h [2]	also measured
CNC(=O)Oc1ccc2c(c1)[C@]1(C)CCN(C)[C@@H]1N2C.O=C(O)c1ccccc1O [Physostigmine (salicylate)]	–	–	Percentage of motility inhibition 0 h (110 µM): 0%; Percentage of motility inhibition 24 h (110 µM): 0%
COc1ccc(-c2cc(=O)c3c(O)c(OC)c(OC)cc3o2)cc1OC [5‐Desmethylsinensetin]	2	11%	–
C=CC1CNC(=S)O1 (centres unmarked) [Epigoitrin]	6	0%	–
CC1(C)S[C@@H]2[C@H](NC(=O)[C@H](N)c3ccccc3)C(=O)N2[C@H]1C(=O)[O-].[Na+] [Ampicillin (sodium)]	24	1%	–
CC(=O)OC1CC2(O)C(OC(=O)c3ccccc3)C3C4(OC(C)=O)COC4CC(O)C3(C)C(O)C(OC(C)=O)C(=C1C)C2(C)C (centres unmarked) [9-Dihydro-13-acetylbaccatin III]	0	8%	–
COc1ccc2cc1Oc1ccc(cc1)C[C@H]1c3cc(c(OC)cc3CCN1C)Oc1c(O)c(OC)cc3c1[C@H](C2)N(C)CC3 [(R)‐Fangchinoline]	44	1%	–
CC(=O)O[C@@H]1C[C@@]23C[C@@]24CC[C@H](O[C@@H]2OC[C@@H](O)[C@H](O)[C@H]2O)C(C)(C)[C@@H]4CC[C@H]3[C@]2(C)C[C@@H]3O[C@@]4(C[C@@H](C)[C@@H]3[C@@]12C)OC[C@@]1(C)O[C@@H]41 [23-epi-26-Deoxyactein]	0	5%	–
CC(=O)O[C@@H]1CC[C@]2(C)C3=C(CC[C@H]2C1(C)C)[C@]1(C)CC[C@H]([C@@H](CCC=C(C)C)C(=O)O)[C@@]1(C)CC3 [Tsugaric acid A]	12	12%	–
C=C(C)[C@@H]1CC[C@]2(C(=O)O)CC[C@]3(C)[C@H](CC[C@@H]4[C@@]5(C)CC[C@H](O)[C@@](C)(CO)[C@@H]5CC[C@]43C)[C@@H]12 [23-Hydroxybetulinic acid]	13	5%	–
CN1CCN(c2ccc(N3C[C@H](CO)OC3=O)cc2F)C=N1 [Delpazolid]	2	3%	–
Retrorsine	28	9%	–
Cl.N=C(N=C(N)N)N1CCOCC1 [Moroxydine (hydrochloride)]	13	8%	–
COc1cc(O)cc(O)c1C(=O)/C=C/c1ccccc1 [(E)‐Cardamonin]	13	8%	–
C=C(C)C(=O)O[C@H]1CC2=C[C@@H](C/C(C)=C/[C@H]3OC(=O)C(=C)[C@H]13)OC2=O [Deoxyelephantopin]	0	9%	–
C=CCCN1C[C@@H]2C[C@H](C1)c1cccc(=O)n1C2 [Rhombifoline]	0	0%	–
C[C@@H]1O[C@@H](O[C@H]2[C@H](O[C@H]3CC[C@@]4(C)[C@@H](CC[C@]5(C)[C@@H]4CC=C4[C@@H]6CC(C)(C)CC[C@]6(C(=O)O[C@@H]6O[C@H](CO[C@@H]7O[C@H](CO)[C@@H](O[C@@H]8O[C@@H](C)[C@H](O)[C@@H](O)[C@H]8O)[C@H](O)[C@H]7O)[C@@H](O)[C@H](O)[C@H]6O)CC[C@]45C)[C@]3(C)CO)OC[C@H](O)[C@@H]2O)[C@H](O)[C@H](O)[C@H]1O [Hederacoside C]	18	0%	–
C=C(CCC=C(C)C)[C@H]1CC[C@]2(C)[C@@H]1[C@H](O)C[C@@H]1[C@@]3(C)CC[C@H](O)C(C)(C)[C@@H]3[C@@H](O[C@@H]3O[C@H](CO)[C@@H](O)[C@H](O)[C@H]3O)C[C@]12C [Ginsenoside Rk3]	0	19%	–
NC(=O)[C@@H]1CC[C@@H]2CN1C(=O)N2OS(=O)(=O)[O-].[Na+] [Avibactam (sodium)]	0	8%	–
O=c1cc(-c2ccc(O)cc2)oc2cc(O[C@@H]3O[C@H](CO)[C@@H](O)[C@H](O)[C@H]3O)cc(O)c12 [Apigenin 7‐glucoside]	10	40%	–
C[C@H]1CC[C@@]2(O)C(C)(C)[C@@H]3CC[C@@]2(C)[C@H]1C3 [Patchouli alcohol]	24	35%	–
O=c1ccoc2cc(O)cc(O)c12 [5,7‐Dihydroxychromone]	0	0%	–
c1cn[nH]c1 [1H‐pyrazole]	0	21%	–

Molecule	Percentage of motility inhibition 0 h [1] [%]	Percentage of motility inhibition 24 h [2]	also measured
O=c1cc(-c2ccc(O)cc2)oc2c([C@@H]3OC[C@@H](O)[C@H](O)[C@H]3O)c(O)c([C@@H]3O[C@H](CO)[C@@H](O)[C@H](O)[C@H]3O)c(O)c12 [Vicenin 3]	15	3%	–
COc1ccc(/C=C/C(=O)c2c(O)cc(OC)cc2OC)cc1 [(E)‐Flavokawain A]	33	11%	–
C[C@@H]1O[C@@H](O[C@H]2[C@H](O[C@H]3CC[C@@]4(C)[C@@H](CC[C@]5(C)[C@@H]4CC=C4[C@@H]6CC(C)(C)CC[C@]6(C(=O)O[C@@H]6O[C@H](CO[C@@H]7O[C@H](CO)[C@@H](O)[C@H](O)[C@H]7O)[C@@H](O)[C@H](O)[C@H]6O)CC[C@]45C)[C@]3(C)CO)OC[C@H](O)[C@@H]2O)[C@H](O)[C@H](O)[C@H]1O [Dipsacoside B]	–	–	Percentage of motility inhibition 0 h (110 µM): 7%; Percentage of motility inhibition 24 h (110 µM): 5%
COc1ccc(-c2cc(=O)c3c(OC)cc(OC)c(OC)c3o2)cc1OC [Isosinensetin]	0	2%	–
COc1ccc([C@@H]2CC(=O)c3c(O)cc(O[C@@H]4O[C@H](CO[C@@H]5O[C@@H](C)[C@H](O)[C@@H](O)[C@H]5O)[C@@H](O)[C@H](O)[C@H]4O)cc3O2)cc1O [Hesperidin]	–	2% and 0%	–
CC(/C=C/C=C(\C)C(=O)O[C@@H]1O[C@H](CO)[C@@H](O)[C@H](O)[C@H]1O)=C\C=C\C=C(C)\C=C\C=C(/C)C(=O)O[C@@H]1O[C@H](CO[C@@H]2O[C@H](CO)[C@@H](O)[C@H](O)[C@H]2O)[C@@H](O)[C@H](O)[C@H]1O [Crocin II]	27	1%	–
COC(=O)C1=CO[C@@H](O[C@@H]2O[C@H](CO)[C@@H](O)[C@H](O)[C@H]2O)[C@@H]2[C@@H](C)CC(=O)[C@]12O [Hastatoside]	0	8%	–
CN[C@H]1[C@H](O)[C@H](O[C@@H]2[C@@H](O)[C@H](O[C@H]3O[C@H](C(C)O)[C@@H](O)[C@H](O)[C@H]3N)[C@@H](N)C[C@H]2N)OC[C@@]1(C)O.O=S(=O)(O)O.O=S(=O)(O)O (some centres unmarked) [G‐418 (disulfate)]	26	11%	–
COc1cc2c(cc1OC)C1Cc3ccc4c(c3CN1CC2)OCO4 (centres unmarked) [Tetrahydroepiberberine]	10	3%	–
Capsaicin β‐D‐glucopyrano side	–	–	Percentage of motility inhibition 0 h (110 µM): 3%; Percentage of motility inhibition 24 h (110 µM): 0%
C=C1CC[C@]2(C)CC[C@]3(C)[C@H](CC[C@@H]4[C@@]5(C)CC[C@H](O)C(C)(C)[C@@H]5CC[C@]43C)[C@H]2[C@@H]1C [Taraxasterol]	1	2%	–
CC[C@H]1CN2CCc3cc(OC)c(OC)cc3[C@@H]2C[C@@H]1C[C@H]1NCCc2cc(OC)c(OC)cc21.Cl.Cl.O [Emetine (dihydrochloride hydrate)]	52	7%	–
Mogroside IIA1	6	47%	–
COC1=C[C@@H]2[C@@H]3Cc4ccc(OC)c(O)c4[C@]2(CCN3C)CC1=O.Cl [Sinomenine hydrochloride]	–	0% and 8%	–
CC(C)=C[C@@H]1CO[C@]23C[C@]4(CO2)[C@H](CC[C@@H]2[C@@]5(C)CC[C@H](O[C@@H]6OC[C@H](O)[C@H](O[C@@H]7O[C@H](CO)[C@@H](O)[C@H](O)[C@H]7O)[C@H]6O[C@@H]6O[C@@H](CO)[C@H](O)[C@H]6O)C(C)(C)[C@@H]5CC[C@]24C)[C@H]3[C@@]1(C)O [Bacopasaponin C]	6	40%	–
COc1cc2oc(-c3ccc(O)cc3)cc(=O)c2c(O)c1[C@@H]1O[C@H](CO)[C@@H](O)[C@H](O)[C@H]1O[C@@H]1O[C@H](CO)[C@@H](O)[C@H](O)[C@H]1O [Spinosin]	–	–	Percentage of motility inhibition 0 h (110 µM): 2%; Percentage of motility inhibition 24 h (110 µM): 6%
CCc1c2c(nc3ccc(OC(=O)N4CCC(N5CCCCC5)CC4)cc13)-c1cc3c(c(=O)n1C2)COC(=O)[C@]3(O)CC.Cl [Irinotecan (hydrochloride)]	0	11%	–
Cc1c2ccncc2c(C)c2c1[nH]c1ccccc12.Cl [Ellipticine (hydrochloride)]	9	11%	–
NC(=O)C[C@H](N)C(=O)O [L-Asparagine]	27	25%	–
RKDVY [Thymopentin (acetate)]	–	–	Percentage of motility inhibition 0 h (0 h, 110 μM): 4%; Percentage of motility inhibition 24 h (24 h, 110 µM): 4%
CS(=O)(=O)O.C[C@H]1COc2c(C3(N)CC3)c(F)cc3c(=O)c(C(=O)O)cn1c23 [Pazufloxacin (mesylate)]	28	2%	–
CC(C)=CCC[C@](C)(O[C@@H]1O[C@H](CO[C@@H]2OC[C@@H](O)[C@H](O)[C@H]2O)[C@@H](O)[C@H](O)[C@H]1O)[C@H]1CC[C@]2(C)[C@@H]1[C@H](O)C[C@@H]1[C@@]3(C)CC[C@H](O)C(C)(C)[C@@H]3CC[C@]12C [Gypenoside XIII]	7	13%	–
